The values that follow come from patent publication US20260077043A1, “COMBINATION THERAPY” (LEAP THERAPEUTICS, INC., priority 2022, published 2026).

Experiment [1] concerns HCT116 human colorectal carcinoma cells without the PIK3CA H1047R mutation. The experiment in a line: HCT116 PIK3CA+/− subcutaneous xenograft, tumor growth inhibition. It is filed as in vivo, BALB/c scid mice. As to conditions: Day 52 (Treatment Day 36), compared to the IgG4 control; DKN-01 5 mg/kg IP twice weekly, BYL719 25 mg/kg PO QD. From the text: (§1) A study was initiated to evaluate growth of a human colorectal cancer cell line, HCT116, with and without the PI3KCA H1047R mutation in mice treated with DKN-01, the PI3KCA inhibitor BYL719 (Alpelisib), or the combination. Female BALB/c scid mice were inoculated subcutaneously with HCT116 human colon carcinoma cells with or without the H1047R mutation on Day 0. On Day 17, when tumors volumes had reached 50-75 mm3, animals were randomized into treatment groups and dosing was initiated.
(§2) Female BALB/c scid mice (10 per group) were inoculated subcutaneously in the right flank with 10×10^6 HCT116 human colorectal carcinoma cells on Day 0. Human IgG4 control (10 mg/kg) and DKN-01 (5 mg/kg) were administered intraperitoneally (IP) twice weekly. BYL719 (25 mg/kg) was administered orally (PO) every day (QD) for the duration of the study. Tumor measurements were performed every 3-4 days with calipers and volume (V) was calculated using the following formula: V=½(length [mm]×width [mm]^2). Data are shown as mean tumor volumes (MTV)+SEM. #, p<0.05. Percent TGI =[(MTV Control)−(MTV Treated)]/(MTV Control). Comparisons between groups at study termination were performed using a one-way repeated measures ANOVA with Tukey's multiple comparisons test.

Experiment [2] has as its system HCT116 human colorectal carcinoma cells with H1047R mutation. The experiment in a line: HCT116 H1047/− subcutaneous xenograft, tumor growth inhibition. It is filed as in vivo, BALB/c scid mice. As to conditions: Day 48 (Treatment Day 36), compared to the IgG4 control; DKN-01 5 mg/kg IP twice weekly, BYL719 25 mg/kg PO QD.
From the text: as §1, §2

Consider `Cc1nc(NC(=O)N2CCC[C@H]2C(N)=O)sc1-c1ccnc(C(C)(C)C(F)(F)F)c1` [BYL719, Alpelisib], for which the figures for the “Tumor Growth Inhibition (TGI)” value in experiment [1] and in experiment [2] were 50% and 56%, respectively.
